Reference: patent US12157741B2, “Macrocyclic inhibitors of DYRK1A” (DANA-FARBER CANCER INSTITUTE, INC., priority 2018, dated 2024)
Read-outs that look alike come from different tables or passages of the source.

Experiments:
Format in all cases: binding
various enzymes [1] = target: various enzymes (Homo sapiens, UniProt P11802); details: compound 1 uM
Experimental: (§1) Ambit profiling was conducted in accordance with the manufacturer's instructions.

various enzymes [2] = target: various enzymes (Homo sapiens, UniProt P52564); details: compound 1 uM
Experimental: as §1

various enzymes [3] = target: various enzymes (Homo sapiens, UniProt P09619); details: compound 1 uM
Experimental: as §1

various enzymes [4] = target: various enzymes (Homo sapiens, UniProt P51956); details: compound 1 uM
Experimental: as §1

various enzymes [5] = target: various enzymes (Homo sapiens, UniProt Q9HBH9); details: compound 1 uM
Experimental: as §1

various enzymes [6] = target: various enzymes (Homo sapiens, UniProt Q8WXR4); details: compound 1 uM
Experimental: as §1

various enzymes [7] = target: various enzymes (Homo sapiens, UniProt Q14289); details: compound 1 uM
Experimental: as §1

various enzymes [8] = target: various enzymes (Homo sapiens, UniProt P0C264); details: compound 1 uM
Experimental: as §1

various enzymes [9] = target: various enzymes (Homo sapiens, UniProt P54753); details: compound 1 uM
Experimental: as §1

various enzymes [10] = target: various enzymes (Homo sapiens, UniProt Q13523); details: compound 1 uM
Experimental: as §1

various enzymes [11] = target: various enzymes (Homo sapiens, UniProt Q13554); details: compound 1 uM
Experimental: as §1

various enzymes [12] = target: various enzymes (Homo sapiens, UniProt P19784); details: compound 1 uM
Experimental: as §1

various enzymes [13] = target: various enzymes (Homo sapiens, UniProt Q56UN5); details: compound 1 uM
Experimental: as §1

various enzymes [14] = target: various enzymes (Homo sapiens, UniProt Q00535); details: compound 1 uM
Experimental: as §1

various enzymes [15] = target: various enzymes (Homo sapiens, UniProt Q13131); details: compound 1 uM
Experimental: as §1

various enzymes [16] = target: various enzymes (Homo sapiens, UniProt P42336, E545A)
Experimental: as §1

various enzymes [17] = target: various enzymes (Homo sapiens, UniProt Q13470); details: compound 1 uM
Experimental: as §1

various enzymes [18] = target: various enzymes (Homo sapiens, UniProt Q9H2G2); details: compound 1 uM
Experimental: as §1

various enzymes [19] = target: various enzymes (Homo sapiens, UniProt Q14164); details: compound 1 uM
Experimental: as §1

various enzymes [20] = target: various enzymes (Homo sapiens, UniProt Q9Y6R4); details: compound 1 uM
Experimental: as §1

various enzymes [21] = target: various enzymes (Homo sapiens, UniProt P36896); details: compound 1 uM
Experimental: as §1

various enzymes [22] = target: various enzymes (Homo sapiens, UniProt P78356); details: compound 1 uM
Experimental: as §1

various enzymes [23] = target: various enzymes (Homo sapiens, UniProt P50613); details: compound 1 uM
Experimental: as §1

various enzymes [24] = target: various enzymes (Homo sapiens, UniProt P20794); details: compound 1 uM
Experimental: as §1

various enzymes [25] = target: various enzymes (Homo sapiens, UniProt Q07912); details: compound 1 uM
Experimental: as §1

various enzymes [26] = target: various enzymes (Homo sapiens, UniProt O00141); details: compound 1 uM
Experimental: as §1

various enzymes [27] = target: various enzymes (Homo sapiens, UniProt Q07002); details: compound 1 uM
Experimental: as §1

various enzymes [28] = target: various enzymes (Homo sapiens, UniProt Q96PY6); details: compound 1 uM
Experimental: as §1

various enzymes [29] = target: various enzymes (Homo sapiens, UniProt P24941); details: compound 1 uM
Experimental: as §1

various enzymes [30] = target: various enzymes (Homo sapiens, UniProt P15735); details: compound 1 uM
Experimental: as §1

various enzymes [31] = target: various enzymes (Homo sapiens, UniProt P07948); details: compound 1 uM
Experimental: as §1

various enzymes [32] = target: various enzymes (Homo sapiens, UniProt P07949); details: compound 1 uM
Experimental: as §1

various enzymes [33] = target: various enzymes (Homo sapiens, UniProt Q15375); details: compound 1 uM
Experimental: as §1

various enzymes [34] = target: various enzymes (Homo sapiens, UniProt Q8WTQ7); details: compound 1 uM
Experimental: as §1

various enzymes [35] = target: various enzymes (Homo sapiens, UniProt P00533, G719S)
Experimental: as §1

various enzymes [36] = target: various enzymes (Homo sapiens, UniProt P51812); details: compound 1 uM
Experimental: as §1

various enzymes [37] = target: various enzymes (Homo sapiens, UniProt P10721); details: compound 1 uM
Experimental: as §1

various enzymes [38] = target: various enzymes (Homo sapiens, UniProt Q9Y6M4); details: compound 1 uM
Experimental: as §1

various enzymes [39] = target: various enzymes (Homo sapiens, UniProt P57058); details: compound 1 uM
Experimental: as §1

various enzymes [40] = target: various enzymes (Homo sapiens, UniProt P54646); details: compound 1 uM
Experimental: as §1

various enzymes [41] = target: various enzymes (Homo sapiens, UniProt P22455); details: compound 1 uM
Experimental: as §1

various enzymes [42] = target: various enzymes (Homo sapiens, UniProt P49759); details: compound 1 uM
Experimental: as §1

various enzymes [43] = target: various enzymes (Homo sapiens, UniProt Q96SB4); details: compound 1 uM
Experimental: as §1

various enzymes (Homo sapiens, UniProt P51812), sequence (P51812 whole entry): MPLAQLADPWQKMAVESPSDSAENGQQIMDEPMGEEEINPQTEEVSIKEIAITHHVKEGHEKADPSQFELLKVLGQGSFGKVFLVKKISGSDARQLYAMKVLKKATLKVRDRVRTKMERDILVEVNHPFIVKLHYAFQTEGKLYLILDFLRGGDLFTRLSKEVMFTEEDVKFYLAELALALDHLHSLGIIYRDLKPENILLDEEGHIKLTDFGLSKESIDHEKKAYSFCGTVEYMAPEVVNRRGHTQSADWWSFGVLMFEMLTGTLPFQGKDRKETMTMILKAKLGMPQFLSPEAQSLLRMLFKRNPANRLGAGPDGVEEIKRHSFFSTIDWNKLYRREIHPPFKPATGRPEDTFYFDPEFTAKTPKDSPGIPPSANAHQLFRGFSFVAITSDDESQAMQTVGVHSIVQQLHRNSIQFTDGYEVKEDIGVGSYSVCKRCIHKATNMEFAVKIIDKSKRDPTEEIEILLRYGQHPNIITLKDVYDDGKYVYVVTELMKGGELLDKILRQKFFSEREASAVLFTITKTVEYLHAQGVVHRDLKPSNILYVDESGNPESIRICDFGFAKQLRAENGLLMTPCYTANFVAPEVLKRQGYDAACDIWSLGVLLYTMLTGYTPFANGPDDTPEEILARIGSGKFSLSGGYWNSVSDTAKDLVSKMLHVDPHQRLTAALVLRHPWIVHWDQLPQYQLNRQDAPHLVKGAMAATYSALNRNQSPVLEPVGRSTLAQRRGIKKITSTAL
various enzymes (Homo sapiens, UniProt P10721), sequence (P10721 26-976): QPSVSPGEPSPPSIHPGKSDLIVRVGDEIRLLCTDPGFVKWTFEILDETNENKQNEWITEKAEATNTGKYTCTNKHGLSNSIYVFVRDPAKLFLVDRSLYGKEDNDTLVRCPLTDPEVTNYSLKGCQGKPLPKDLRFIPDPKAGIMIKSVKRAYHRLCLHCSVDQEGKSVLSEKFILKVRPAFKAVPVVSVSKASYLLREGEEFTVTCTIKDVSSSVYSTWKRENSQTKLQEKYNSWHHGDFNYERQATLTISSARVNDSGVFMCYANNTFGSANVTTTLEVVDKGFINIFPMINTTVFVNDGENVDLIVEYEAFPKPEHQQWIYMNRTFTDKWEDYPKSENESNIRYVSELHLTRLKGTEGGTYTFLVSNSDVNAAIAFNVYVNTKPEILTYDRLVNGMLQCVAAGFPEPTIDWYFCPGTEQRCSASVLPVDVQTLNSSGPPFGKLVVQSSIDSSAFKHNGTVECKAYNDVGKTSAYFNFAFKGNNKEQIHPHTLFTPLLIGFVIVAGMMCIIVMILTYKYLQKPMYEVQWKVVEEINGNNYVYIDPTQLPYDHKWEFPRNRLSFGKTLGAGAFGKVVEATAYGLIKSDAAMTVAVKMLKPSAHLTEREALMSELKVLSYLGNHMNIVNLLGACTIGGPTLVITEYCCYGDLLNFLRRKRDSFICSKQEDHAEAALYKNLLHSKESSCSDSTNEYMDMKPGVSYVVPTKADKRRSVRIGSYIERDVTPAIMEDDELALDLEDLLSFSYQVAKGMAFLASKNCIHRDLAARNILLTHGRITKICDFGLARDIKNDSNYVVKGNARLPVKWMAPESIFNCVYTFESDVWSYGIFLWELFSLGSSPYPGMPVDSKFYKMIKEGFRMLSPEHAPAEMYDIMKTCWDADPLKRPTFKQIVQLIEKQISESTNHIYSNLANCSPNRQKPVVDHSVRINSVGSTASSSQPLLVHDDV
various enzymes (Homo sapiens, UniProt P11802), sequence (P11802 whole entry): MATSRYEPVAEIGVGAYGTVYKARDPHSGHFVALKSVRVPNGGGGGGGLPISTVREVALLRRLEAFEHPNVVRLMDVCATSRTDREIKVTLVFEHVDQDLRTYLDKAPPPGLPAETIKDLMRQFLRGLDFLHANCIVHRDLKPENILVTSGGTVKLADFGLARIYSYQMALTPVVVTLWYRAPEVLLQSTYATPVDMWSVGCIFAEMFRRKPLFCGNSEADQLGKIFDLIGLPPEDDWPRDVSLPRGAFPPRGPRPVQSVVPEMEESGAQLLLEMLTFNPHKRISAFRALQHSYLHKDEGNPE
various enzymes (Homo sapiens, UniProt Q56UN5), sequence (Q56UN5 whole entry): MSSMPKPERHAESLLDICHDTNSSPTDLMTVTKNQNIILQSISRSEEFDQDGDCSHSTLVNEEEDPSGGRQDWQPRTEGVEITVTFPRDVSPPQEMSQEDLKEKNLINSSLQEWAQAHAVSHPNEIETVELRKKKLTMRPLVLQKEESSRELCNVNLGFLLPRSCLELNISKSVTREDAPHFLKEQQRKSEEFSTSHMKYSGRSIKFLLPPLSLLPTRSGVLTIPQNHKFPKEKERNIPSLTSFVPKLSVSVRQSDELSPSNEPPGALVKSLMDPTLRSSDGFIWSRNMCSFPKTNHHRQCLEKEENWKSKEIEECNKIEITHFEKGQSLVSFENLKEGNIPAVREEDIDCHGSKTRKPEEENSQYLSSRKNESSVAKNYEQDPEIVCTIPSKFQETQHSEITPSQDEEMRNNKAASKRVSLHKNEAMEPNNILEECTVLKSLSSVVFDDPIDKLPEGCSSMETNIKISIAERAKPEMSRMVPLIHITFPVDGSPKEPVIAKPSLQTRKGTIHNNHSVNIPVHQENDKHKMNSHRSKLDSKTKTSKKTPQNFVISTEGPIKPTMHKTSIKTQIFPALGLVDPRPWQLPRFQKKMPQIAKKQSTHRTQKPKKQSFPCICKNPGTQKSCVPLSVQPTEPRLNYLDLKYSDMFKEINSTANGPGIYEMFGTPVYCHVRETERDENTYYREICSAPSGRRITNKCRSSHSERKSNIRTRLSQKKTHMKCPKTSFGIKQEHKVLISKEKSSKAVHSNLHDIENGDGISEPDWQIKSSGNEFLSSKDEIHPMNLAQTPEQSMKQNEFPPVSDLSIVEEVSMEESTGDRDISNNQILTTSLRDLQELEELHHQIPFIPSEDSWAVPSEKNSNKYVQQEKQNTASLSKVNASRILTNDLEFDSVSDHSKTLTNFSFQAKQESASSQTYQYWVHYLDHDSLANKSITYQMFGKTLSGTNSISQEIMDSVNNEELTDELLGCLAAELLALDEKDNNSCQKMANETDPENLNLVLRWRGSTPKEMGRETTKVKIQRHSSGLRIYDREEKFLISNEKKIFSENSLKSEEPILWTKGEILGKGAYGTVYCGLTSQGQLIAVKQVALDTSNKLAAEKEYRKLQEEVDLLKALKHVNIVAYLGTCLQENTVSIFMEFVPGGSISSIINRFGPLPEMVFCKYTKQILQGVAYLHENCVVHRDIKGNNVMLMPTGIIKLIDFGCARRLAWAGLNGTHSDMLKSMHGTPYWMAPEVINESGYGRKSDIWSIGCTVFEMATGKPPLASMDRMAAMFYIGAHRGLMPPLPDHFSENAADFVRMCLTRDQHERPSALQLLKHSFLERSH
various enzymes (Homo sapiens, UniProt P54753), sequence (P54753 34-998): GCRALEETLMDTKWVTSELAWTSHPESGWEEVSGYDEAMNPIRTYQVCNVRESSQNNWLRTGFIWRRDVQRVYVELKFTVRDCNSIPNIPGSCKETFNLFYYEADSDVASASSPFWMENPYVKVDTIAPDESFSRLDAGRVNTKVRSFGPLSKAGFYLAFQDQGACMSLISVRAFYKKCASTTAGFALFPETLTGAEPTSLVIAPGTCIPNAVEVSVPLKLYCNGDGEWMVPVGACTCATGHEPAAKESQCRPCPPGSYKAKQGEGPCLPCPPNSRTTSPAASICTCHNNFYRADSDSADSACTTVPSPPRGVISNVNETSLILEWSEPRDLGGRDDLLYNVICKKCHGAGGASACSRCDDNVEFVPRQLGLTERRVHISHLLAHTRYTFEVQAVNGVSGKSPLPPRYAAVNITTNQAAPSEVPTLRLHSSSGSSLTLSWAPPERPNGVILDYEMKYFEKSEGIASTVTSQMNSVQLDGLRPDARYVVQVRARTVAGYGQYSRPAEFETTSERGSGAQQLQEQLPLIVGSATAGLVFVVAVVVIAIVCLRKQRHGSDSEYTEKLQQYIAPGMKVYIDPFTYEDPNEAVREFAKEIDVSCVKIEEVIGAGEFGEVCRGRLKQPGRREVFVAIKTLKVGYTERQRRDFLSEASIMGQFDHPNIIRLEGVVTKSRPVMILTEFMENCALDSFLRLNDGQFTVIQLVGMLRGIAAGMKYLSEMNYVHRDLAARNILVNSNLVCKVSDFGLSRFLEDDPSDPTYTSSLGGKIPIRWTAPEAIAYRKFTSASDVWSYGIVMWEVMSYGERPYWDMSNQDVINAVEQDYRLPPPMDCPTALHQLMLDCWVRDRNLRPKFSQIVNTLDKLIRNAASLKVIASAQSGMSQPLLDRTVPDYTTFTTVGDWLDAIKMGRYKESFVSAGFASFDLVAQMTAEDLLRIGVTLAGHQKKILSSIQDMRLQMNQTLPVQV
various enzymes (Homo sapiens, UniProt Q13470), sequence (Q13470 whole entry): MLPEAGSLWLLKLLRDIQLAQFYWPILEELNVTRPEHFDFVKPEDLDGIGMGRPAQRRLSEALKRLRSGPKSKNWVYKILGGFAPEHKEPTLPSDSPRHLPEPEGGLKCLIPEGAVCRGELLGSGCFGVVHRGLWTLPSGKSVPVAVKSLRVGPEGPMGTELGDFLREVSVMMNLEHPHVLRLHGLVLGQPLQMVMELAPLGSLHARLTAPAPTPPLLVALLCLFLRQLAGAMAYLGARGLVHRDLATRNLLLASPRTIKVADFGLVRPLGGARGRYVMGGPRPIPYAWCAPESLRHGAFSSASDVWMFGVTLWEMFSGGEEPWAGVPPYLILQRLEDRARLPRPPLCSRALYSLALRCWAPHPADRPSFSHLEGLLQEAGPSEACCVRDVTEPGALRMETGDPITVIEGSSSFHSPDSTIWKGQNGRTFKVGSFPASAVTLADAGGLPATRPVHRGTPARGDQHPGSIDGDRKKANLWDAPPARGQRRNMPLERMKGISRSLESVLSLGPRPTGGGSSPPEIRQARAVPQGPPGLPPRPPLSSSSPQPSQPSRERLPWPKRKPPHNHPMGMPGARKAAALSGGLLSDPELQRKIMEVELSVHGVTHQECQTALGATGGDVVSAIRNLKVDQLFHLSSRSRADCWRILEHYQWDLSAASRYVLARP

With `COc1c2c(nn1C)CN(C(C)C)C(=O)CCCn1cc(c(C(F)(F)F)n1)-c1c[nH]c3ncc-2cc13` [Compound 50, (Z)-5-isopropyl-35-methoxy-31-methyl-13-(trifluoromethyl)-11H,21H,31H-5-aza-2(3,5)-pyrrolo[2,3-b]pyridina-1(4,1),3(4,3)-dipyrazolacyclononaphan-6-one] the “Ambit profiling: CDK4” value (various enzymes [1]) was 88, the “Ambit profiling: CDK4-cyclinD1” value (various enzymes [1]) was 76 and the “Ambit profiling: CDK4-cyclinD3” value (various enzymes [1]) was 81. The “Ambit profiling: MEK6” value (various enzymes [2]) was 45, the “Ambit profiling: PDGFRB” value (various enzymes [3]) was 0 and the “Ambit profiling: NEK3” value (various enzymes [4]) was 51. For the same compound, the “Ambit profiling: MKNK2” value (various enzymes [5]) was 53, the “Ambit profiling: MYO3B” value (various enzymes [6]) was 9 and the “Ambit profiling: PYK2” value (various enzymes [7]) was 19. The “Ambit profiling: SgK110” value (various enzymes [8]) was 99, the “Ambit profiling: EPHB3” value (various enzymes [9]) was 62 and the “Ambit profiling: PRP4” value (various enzymes [10]) was 87. The “Ambit profiling: CAMK2B” value (various enzymes [11]) was 46, the “Ambit profiling: CSNK2A2” value (various enzymes [12]) was 8.7 and the “Ambit profiling: YSK4” value (various enzymes [13]) was 0.1. The “Ambit profiling: CDK5” value (various enzymes [14]) was 89, the “Ambit profiling: AMPK-alpha1” value (various enzymes [15]) was 90 and the “Ambit profiling: PIK3CA(E545A)” value (various enzymes [16]) was 82. The “Ambit profiling: TNK1” value (various enzymes [17]) was 28, the “Ambit profiling: SLK” value (various enzymes [18]) was 0.4 and the “Ambit profiling: IKK-epsilon” value (various enzymes [19]) was 19. For the same compound, the “Ambit profiling: MAP3K4” value (various enzymes [20]) was 60, the “Ambit profiling: ACVR1B” value (various enzymes [21]) was 57 and the “Ambit profiling: PIP5K2B” value (various enzymes [22]) was 35. The “Ambit profiling: CDK7” value (various enzymes [23]) was 6, the “Ambit profiling: MAK” value (various enzymes [24]) was 77 and the “Ambit profiling: TNK2” value (various enzymes [25]) was 1.9. The “Ambit profiling: SGK” value (various enzymes [26]) was 6, the “Ambit profiling: PCTK3” value (various enzymes [27]) was 69 and the “Ambit profiling: NEK1” value (various enzymes [28]) was 71. The “Ambit profiling: CDK2” value (various enzymes [29]) was 62, the “Ambit profiling: PHKG2” value (various enzymes [30]) was 53 and the “Ambit profiling: LYN” value (various enzymes [31]) was 15. For the same compound, the “Ambit profiling: RET” value (various enzymes [32]) was 0.1, the “Ambit profiling: EPHA7” value (various enzymes [33]) was 50 and the “Ambit profiling: GRK7” value (various enzymes [34]) was 9.7. For the same compound, the “Ambit profiling: EGFR(G719S)” value (various enzymes [35]) was 41, the “Ambit profiling: RSK2(Kin.Dom.1-N-terminal)” value (various enzymes [36]) was 1.2 and the “Ambit profiling: RSK2(Kin.Dom.2-C-terminal)” value (various enzymes [36]) was 100. For the same compound, the “Ambit profiling: KIT” value (various enzymes [37]) was 2.9, the “Ambit profiling: KIT-autoinhibited” value (various enzymes [37]) was 76 and the “Ambit profiling: CSNK1G3” value (various enzymes [38]) was 79. The “Ambit profiling: HUNK” value (various enzymes [39]) was 8, the “Ambit profiling: AMPK-alpha2” value (various enzymes [40]) was 57 and the “Ambit profiling: FGFR4” value (various enzymes [41]) was 79. The “Ambit profiling: CLK1” value (various enzymes [42]) was 18 and the “Ambit profiling: SRPK1” value (various enzymes [43]) was 30.

With `CC(C)N1Cc2nn(C)cc2-c2cnc3[nH]cc(c3c2)-c2cn(nc2C(F)(F)F)CCCC1=O` [Compound 45, (Z)-5-isopropyl-31-methyl-13-(trifluoromethyl)-11H,21H,31H-5-aza-2(3,5)-pyrrolo[2,3-b]pyridina-1(4,1),3(4,3)-dipyrazolacyclononaphan-6-one] the “Ambit profiling: CDK4” value (various enzymes [1]) was 100, the “Ambit profiling: CDK4-cyclinD1” value (various enzymes [1]) was 53 and the “Ambit profiling: CDK4-cyclinD3” value (various enzymes [1]) was 100. For the same compound, the “Ambit profiling: MEK6” value (various enzymes [2]) was 15, the “Ambit profiling: PDGFRB” value (various enzymes [3]) was 0.1 and the “Ambit profiling: NEK3” value (various enzymes [4]) was 50. The “Ambit profiling: MKNK2” value (various enzymes [5]) was 100, the “Ambit profiling: MYO3B” value (various enzymes [6]) was 6.7 and the “Ambit profiling: PYK2” value (various enzymes [7]) was 30. For the same compound, the “Ambit profiling: SgK110” value (various enzymes [8]) was 98, the “Ambit profiling: EPHB3” value (various enzymes [9]) was 97 and the “Ambit profiling: PRP4” value (various enzymes [10]) was 36. The “Ambit profiling: CAMK2B” value (various enzymes [11]) was 65, the “Ambit profiling: CSNK2A2” value (various enzymes [12]) was 1.8 and the “Ambit profiling: YSK4” value (various enzymes [13]) was 17. The “Ambit profiling: CDK5” value (various enzymes [14]) was 86, the “Ambit profiling: AMPK-alpha1” value (various enzymes [15]) was 50 and the “Ambit profiling: PIK3CA(E545A)” value (various enzymes [16]; compound 1 uM) was 56. For the same compound, the “Ambit profiling: TNK1” value (various enzymes [17]) was 12, the “Ambit profiling: SLK” value (various enzymes [18]) was 2.8 and the “Ambit profiling: IKK-epsilon” value (various enzymes [19]) was 40. For the same compound, the “Ambit profiling: MAP3K4” value (various enzymes [20]) was 94, the “Ambit profiling: ACVR1B” value (various enzymes [21]) was 89 and the “Ambit profiling: PIP5K2B” value (various enzymes [22]) was 23. For the same compound, the “Ambit profiling: CDK7” value (various enzymes [23]) was 13, the “Ambit profiling: MAK” value (various enzymes [24]) was 34 and the “Ambit profiling: TNK2” value (various enzymes [25]) was 11. For the same compound, the “Ambit profiling: SGK” value (various enzymes [26]) was 1.3, the “Ambit profiling: PCTK3” value (various enzymes [27]) was 30 and the “Ambit profiling: NEK1” value (various enzymes [28]) was 100. For the same compound, the “Ambit profiling: CDK2” value (various enzymes [29]) was 35, the “Ambit profiling: PHKG2” value (various enzymes [30]) was 44 and the “Ambit profiling: LYN” value (various enzymes [31]) was 22. The “Ambit profiling: RET” value (various enzymes [32]) was 0.15, the “Ambit profiling: EPHA7” value (various enzymes [33]) was 59 and the “Ambit profiling: GRK7” value (various enzymes [34]) was 28. The “Ambit profiling: EGFR(G719S)” value (various enzymes [35]; compound 1 uM) was 41, the “Ambit profiling: RSK2(Kin.Dom.1-N-terminal)” value (various enzymes [36]) was 0.9 and the “Ambit profiling: RSK2(Kin.Dom.2-C-terminal)” value (various enzymes [36]) was 100. The “Ambit profiling: KIT” value (various enzymes [37]) was 6.5, the “Ambit profiling: KIT-autoinhibited” value (various enzymes [37]) was 69 and the “Ambit profiling: CSNK1G3” value (various enzymes [38]) was 100. For the same compound, the “Ambit profiling: HUNK” value (various enzymes [39]) was 16, the “Ambit profiling: AMPK-alpha2” value (various enzymes [40]) was 87 and the “Ambit profiling: FGFR4” value (various enzymes [41]) was 85. The “Ambit profiling: CLK1” value (various enzymes [42]) was 9.9 and the “Ambit profiling: SRPK1” value (various enzymes [43]) was 4.5.
